Reference: US20250051277A1, “DELIVERY OF THERAPEUTIC ALKALOID COMPOUNDS” (Sensorium Therapeutics, Inc., priority 2021, published 2025)
Read-outs that look alike come from different tables or passages of the source. Marks after values point to notes of the source that are not given here.

Legend:
[1] = format: physicochemical; conditions: SGF with pepsin, pH 1.5, 37° C.; for Condition 1 Conversion (%): 0.5 mM; for Condition 1 Conversion (%), first value of pair x/y: first of two values; for Condition 1 Conversion (%), second value of pair x/y: second of two values
[2] = format: physicochemical; conditions: DI water, 25° C., 0.5 mM

Compound	Condition 1 Conversion (%) ([1]; time 1 min)	Condition 1 Conversion (%) ([1]; time 5 min)	Condition 1 Conversion (%) ([1]; time 30 min)	Condition 1 Conversion (%) ([1]; time 1 h)	Condition 1 Conversion (%) ([1]; time 4 h)	Condition 1 Conversion (%) ([1]; time 24 h)	Condition 2 Conversion (%) ([2]; time 1 min)	Condition 2 Conversion (%) ([2]; time 5 min)	Condition 2 Conversion (%) ([2]; time 30 min)	Condition 2 Conversion (%) ([2]; time 1 h)	Condition 2 Conversion (%) ([2]; time 4 h)	Condition 2 Conversion (%) ([2]; time 24 h)	Condition 1 Conversion (%), first value of pair x/y ([1]; time 1 h) [%]	Condition 1 Conversion (%), second value of pair x/y ([1]; time 1 h) [%]	Condition 1 Conversion (%), first value of pair x/y ([1]; time 4 h) [%]	Condition 1 Conversion (%), second value of pair x/y ([1]; time 4 h) [%]	Condition 1 Conversion (%), first value of pair x/y ([1]; time 24 h) [%]	Condition 1 Conversion (%), second value of pair x/y ([1]; time 24 h) [%]
COc1ccc([C@]23CCN(C)[C@H]2CC(OC)(OC)CC3)cc1OC (stereo in doubt) [Compound 190, 3a-(3,4-dimethoxyphenyl)-6,6-dimethoxy-1-methyl-2,3,4,5,7,7a-hexahydroindole]	0	8.30	82.97	100	100	100	0%	0%	0	0	0	0						
COc1ccc(C23CCC(=NNC(=O)Nc4ccccc4)C[C@@H]2N(C)CC3)cc1OC (stereo in doubt) [Compound 198, 1-[[(3aR)-3a-(3,4-dimethoxyphenyl)-1-methyl-2,3,4,5,7,7a-hexahydroindol-6-ylidene]amino]-3-phenyl-urea]	0.86	1	1	1	1	1	0.2%	0.21%	0.22	0.55	0.89	0.8						
COc1ccc([C@]23CCN(C)[C@H]2CC2(CC3)OCC(c3ccc([N+](=O)[O-])cc3)O2)cc1OC (stereo partly drawn) [Compound 114, (3a'S,7a'S)-3a′-(3,4-dimethoxyphenyl)-1′-methyl-4-(4-nitrophenyl)octahydrospiro[[1,3]dioxolane-2,6′-indole]]	0	0	0	0	0	0												
COc1ccc([C@@]23CCC(=NNC(=O)c4ccncc4)C[C@@H]2N(C)CC3)cc1OC [Compound 157, N-[[(3aS,7aS)-3a-(3,4-dimethoxyphenyl)-1-methyl-2,3,4,5,7,7a-hexahydroindol-6-ylidene]amino]pyridine-4-carboxamide]	100	100	100	100	100	100												
COc1ccc([C@@]23CCC(=NNC(=O)CC[C@H](NC(=O)c4ccc(NCc5cnc6nc(N)nc(O)c6n5)cc4)C(=O)O)C[C@@H]2N(C)CC3)cc1OC [Compound 172, (2S)-5-[2-[(3aS,7aS)-3a-(3,4-dimethoxyphenyl)-1-methyl-2,3,4,5,7,7a-hexahydroindol-6-ylidene]hydrazino]-2-[[4-[(2-amino-4-hydroxy-pteridin-6-yl)methylamino]benzoyl]amino]-5-oxo-pentanoic acid]	100	100	100	100	100	100	50* %	70* %	100	100	100	100						
COc1ccc([C@]23CCN(C)[C@H]2CC2(CC3)OC[C@H]([C@@H](O)[C@@H](O)Cn3c4nc(=O)[nH]c(=O)c-4nc4cc(C)c(C)cc43)O2)cc1OC (stereo partly drawn) [Compound 174, 10-[(2S,3S)-3-[(3′aS,4R)-3′a-(3,4-dimethoxyphenyl)-1′-methyl-spiro[1,3-dioxolane-2,6′-2,3,4,5,7,7a-hexahydroindole]-4-yl]-2,3-dihydroxy-propyl]-7,8-dimethyl-benzo[g]pteridine-2,4-dione]	0	0	0	0	0	0												
COc1ccc([C@]23CCN(C)[C@H]2CC2(CC3)O[C@@H]([C@@H](O)Cn3c4nc(=O)[nH]c(=O)c-4nc4cc(C)c(C)cc43)[C@@H](CO)O2)cc1OC (stereo partly drawn) [Compound 196, 10-[(2S)-2-[(3′aS,4S,5R)-3′a-(3,4-dimethoxyphenyl)-5-(hydroxymethyl)-1′-methyl-spiro[1,3-dioxolane-2,6′-2,3,4,5,7,7a-hexahydroindole]-4-yl]-2-hydroxy-ethyl]-7,8-dimethyl-benzo[g]pteridine-2,4-dione]	0	0	0	0	0	0												
COc1ccc([C@@]23CCC(=NOC(C)(C)C)C[C@@H]2N(C)CC3)cc1OC [Compound 199, (3aS)-N-tert-butoxy-3a-(3,4-dimethoxyphenyl)-1-methyl-2,3,4,5,7,7a-hexahydroindol-6-imine]	0	0	0	4.2	23.6	27.3	0%	0%	0	0	0	0						
CCON=C1CC[C@@]2(c3ccc(OC)c(OC)c3)CCN(C)[C@H]2C1 [Compound 200, (3aS,7aS)-3a-(3,4-dimethoxyphenyl)-N-ethoxy-1-methyl-2,3,4,5,7,7a-hexahydroindol-6-imine]	0	0	0	2.1	27.7	34.1	0%	0%	0	0	0	0						
COc1ccc([C@@]23CCC(=NOCC(=O)O)C[C@@H]2N(C)CC3)cc1OC [Compound 201, 2-[[(3aS,7aS)-3a-(3,4-dimethoxyphenyl)-1-methyl-2,3,4,5,7,7a-hexahydroindol-6-ylidene]amino]oxyacetic acid]	0	0	0	0	7.1	14.7	0%	0%	0	0	0	0						
COc1ccc([C@@]23CCC(=NOCC(=O)OC(C)(C)C)C[C@@H]2N(C)CC3)cc1OC [Compound 202, tert-butyl 2-[[(3aS,7aS)-3a-(3,4-dimethoxyphenyl)-1-methyl-2,3,4,5,7,7a-hexahydroindol-6-ylidene]amino]oxyacetate]	0	0	0				0%	0%	0	0	0	0	1.12	0	3.01	6.42	64.4	6.42
COc1ccc([C@@]23CCC(=NOCCO)C[C@@H]2N(C)CC3)cc1OC [Compound 203, 2-[[(3aS,7aS)-3a-(3,4-dimethoxyphenyl)-1-methyl-2,3,4,5,7,7a-hexahydroindol-6-ylidene]amino]oxyethanol]	0	0	0	0	18.58	26.48	0%	0%	0	0	0	0						
CCCC1CO[C@]2(CC[C@@]3(c4ccc(OC)c(OC)c4)CCN(C)C3C2)O1 (stereo partly drawn) [Compound 212, (2R,3′aS)-3′a-(3,4-dimethoxyphenyl)-1′-methyl-4-propyl-spiro[1,3-dioxolane-2,6′-2,3,4,5,7,7a-hexahydroindole]]	0	0	0	0	0	0												
CCCC1CO[C@@]2(CC[C@@]3(c4ccc(OC)c(OC)c4)CCN(C)C3C2)O1 (stereo partly drawn) [Compound 238, (2S,3′aS)-3′a-(3,4-dimethoxyphenyl)-1′-methyl-4-propyl-spiro[1,3-dioxolane-2,6′-2,3,4,5,7,7a-hexahydroindole]]	0	0	0	0	0	0												
